Data from ChEMBL document CHEMBL5252552, “Defined concatenated α6α1β3γ2 GABAA receptor constructs reveal dual action of pyrazoloquinolinone allosteric modulators” (Bioorg Med Chem, 2019).

Key:
Format in all cases: cell-based
[1] = target: Gamma-aminobutyric acid receptor subunit alpha-1/beta-3/gamma-2 (Rattus norvegicus) (UniProt P18508+P62813+P63079); test: Positive allosteric modulation of rat recombinant GABAA alpha1beta3gamma2 receptor expressed in Xenopus laevis oocytes assessed as maximal efficacy at -80 mV holding potential at 1 uM in presence of GABA EC1 to 1.5 by two-electrode voltage-clamp assay; conditions: Oocyte
[2] = target: Gamma-aminobutyric acid receptor subunit alpha-1/alpha-6/beta-3/gamma-2 (Rattus norvegicus) (UniProt P18508+P30191+P62813+P63079); test: Positive allosteric modulation of rat recombinant GABAA alpha6beta3alpha1-gamma2beta3 receptor expressed in Xenopus laevis oocytes assessed as maximal efficacy at -80 mV holding potential at 10 uM in presence of GABA EC1 to 1.5 by two-electrode voltage-clamp assay; conditions: Oocyte, filed as positive allosteric modulator
[3] = target: Gamma-aminobutyric acid receptor subunit alpha-6/beta-3/gamma-2 (Rattus norvegicus) (UniProt P18508+P30191+P63079); test: Positive allosteric modulation of rat recombinant GABAA alpha6beta3alpha6-gamma2beta3 receptor expressed in Xenopus laevis oocytes assessed as maximal efficacy at -80 mV holding potential at 30 uM in presence of GABA EC1 to 1.5 by two-electrode voltage-clamp assay; conditions: Oocyte, filed as positive allosteric modulator

Efficacy [1]: 18%
Efficacy [2]: 662%
Efficacy [3]: 570%
SMILES: COc1ccc(-n2nc3c4ccc(Br)cc4[nH]cc-3c2=O)cc1
